Values joined by “and” are separate entries in the source; they are usually repeats but may differ in a detail not shown here. Equal entries are not always repeated. Where two headings read alike, the source gives them in different places.
Key:
[1] = system: tail flick antinociception; settings: cited from earlier work
[2] = system: antinociceptive action of nicotine; settings: in vivo; cited from earlier work
[3] = system: α4β2 type nicotinic receptors; settings: binds more tightly; cited from earlier work
[4] = system: post-incisional pain, injured hind paw; settings: for Meas (von Frey response): IP, individual measurements
postoperative pain = system: postoperative pain
Method: (§1) This study was a randomized, double blind clinical trial with a 24 hour data collection period. The study was approved by the institutional review board at Columbia University. Written informed consent was obtained from all patients. Women between the ages of 18 and 50, scheduled to have uterine surgery (either myomectomy or hysterectomy) through a low transverse incision were eligible to be included. We chose to only study women in this preliminary study because animal studies have identified gender differences in nicotine's analgesic action 10-12. Patients were excluded who had smoked during the past year, had preexisting pain syndromes, hypertension, or any history of cardiovascular disease. All patients were American Society of Anesthesiologists class 1 or 2. The patients were instructed before surgery that they would be asked about their pain with a numerical analog score where 0 is no pain and 10 is the worst pain that they could imagine. […] No other medications were given in the preoperative period.
(§2) All patients were given a standardized anesthetic as follows: anesthetic premedication was administered in the operating room consisting of 1-2 μg/kg fentanyl and 1 mg vecuronium. Anesthesia was induced with propofol 2 mg/kg and succinylcholine 2 mg/kg. After intubation of the trachea, anesthesia was maintained with a fentanyl infusion of 1-2 μg/kg/hr and isoflurane titrated to adequate anesthetic depth by the clinical anesthesiologist, who was not aware of the treatment group. Muscle relaxation was effected with vecuronium. All patients were given dolasetron 12.5 mg prophylactically to prevent nausea and vomiting. At the completion of surgery, the anesthesiologist was given an opaque sealed container with either a nicotine nasal spray (3 mg—Nicotrol NS, Pharmacia, Peapack, N.J.) or saline nasal spray prepared according to a random number table by the research pharmacy. The study drug was administered by the anesthesiologist as 3 jets in each nostril (3 mg nicotine or an equal volume of saline) at a 45 degree angle after the muscle relaxant was reversed and while the surgeon was closing the fascia.
Five minutes after extubation and every 5 minutes thereafter for 60 minutes, the patient was asked to report the pain that they were experiencing with a numerical analog score from 0-10. A pain report was also obtained at 2 and 24 hours. A PCA pump was inserted into the patient's intravenous circuit prior to emergence from anesthesia. […] No other postoperative analgesic medications were used.
The data were analyzed per protocol. Two subjects from whom informed consent was obtained were not studied for postoperative pain. In one case because of a protocol violation in the standard anesthetic the patient was not randomized and in the second case, the anesthesiologist was not certain of study drug dose. The decision to exclude these patients was made prior to the postoperative period and this no data was obtained.
(§3) In previous studies using analog pain scores the standard deviation was approximately 2 numerical analog pain units. We calculated that in order to detect a difference of 2 numerical analog pain units, with α=0.05 and 80% power we would need to enroll 17 patients per group (StatMate, GraphPad software, San Diego, Calif., USA). 10 patients were enrolled per group as a pilot study requested by our IRB. […] The change in pain scores over time was determined with a One Way Analysis of Variance for repeated measures, where time was considered a continuous variable (Analyse-it for Microsoft Excel; Analyse-it Software, ltd., Leeds, England). All values are reported as mean (SD).

[5] = Method: as §1
as §2, with “fascia. […]” for “fascia.”
In previous studies using analog pain scores the standard deviation was approximately 2 numerical analog pain units. We calculated that in order to detect a difference of 2 numerical analog pain units, with α=0.05 and 80% power we would need to enroll 17 patients per group (StatMate, GraphPad software, San Diego, Calif., USA). […] The change in pain scores over time was determined with a One Way Analysis of Variance for repeated measures, where time was considered a continuous variable (Analyse-it for Microsoft Excel; Analyse-it Software, ltd., Leeds, England). […]

[6] = remark: listed apart in the source
Method: as §2
Blood pressure was measured with a non-invasive automatic oscillometric blood pressure cuff every 5 minutes for the first hour (Agilent Technologies, Andover, Mass.). Heart rate was monitored continuously with a pulse oximeter and electrocardiographic leads and recorded every five minutes for the first hour (Agilent Technologies, Andover, Mass.). All testing was conducted by the same investigator (D.D.). Both the investigator recording data and the nurse administering medication were blinded to treatment group.
as §3

post-incisional pain = system: post-incisional pain
Method: Each of these studies will be nearly identical to the original study (FIG. 5). However, the studies will look at the following dosing paradigms: • 1. Animals will be randomized to receive nicotine 0.25 to 1.5 mg/kg, or placebo 2 hours prior to the hind-paw surgery, or 2 hours after the hind paw surgery (reproducing the original study). […] The doses will be determined in a dose-finding portion of the interaction study. The interaction surface will be modeled and tested to identify any benefit from preoperative administration of nicotine. • 2. […] The study will help to document whether there is any benefit to maintaining nicotine with a constant infusion vs. a simple bolus injection. Expected Results and Potential Issues

[7] = nicotine nasal spray 3 mg, PCA morphine
TNF-α, IL2 and IL6 = settings: anticipated; nicotine 0-5 mg/kg after surgical incision
[8] = 3 mg intranasally, non-smoking volunteers; cited from earlier work
[9] = cited from earlier work
[10] = 3 mg intranasally (Guthrie, 1999)

## CCN1C[C@]2(COC(=O)c3ccccc3N3C(=O)C[C@H](C)C3=O)CC[C@H](OC)[C@@]34[C@@H]5C[C@H]6[C@H](OC)[C@@H]5[C@](O)(C[C@@H]6OC)[C@](O)([C@@H](OC)[C@H]23)[C@@H]14 [MLA]
[1]; tail flick assay
  effect on the antinociceptive response to nicotine: no effect

## C[N+](C)(C)CCCCCC[N+](C)(C)C [hexamethonium]
[2]
  effect on the antinociceptive action of nicotine: no effect

## CNCC/C=C/c1cccnc1 [metanicotine]
[3]
  binding selectivity for α4β2 over α3β4, α7 or muscle type nicotinic receptors: over 10,000 times
[1]; dose of 10 mg/kg
  antinociception in the tail flick assay: midrange antinociception

## CN1CC[C@]23c4c5ccc(O)c4O[C@H]2[C@@H](O)C=C[C@H]3[C@H]1C5 [morphine]
[4]; 129J strain relatively insensitive to morphine
  antinociceptive efficacy alone: relatively ineffective alone
[4]; Morphine 0.1 mg/kg, Nicotine 0
  Meas (von Frey response): 1.8 gms (2×) and 0.75 gms (2×) and 2.95 gms
[4]; Morphine 1 mg/kg, Nicotine 0
  Meas (von Frey response): 1.95 gms (3×) and 1.7 gms and 0.9 gms and 5.2 gms (2×) and 5.95 gms and 0.75 gms and 2.95 gms
[4]; Morphine 5 mg/kg, Nicotine 0
  Meas (von Frey response): 0.9 gms (3×) and 1.1 gms (2×) and 7.9 gms (3×) and 7.65 gms (2×)
[4]; Morphine 10 mg/kg, Nicotine 0
  Meas (von Frey response): 1.1 gms (3×) and 0.45 gms and 2.15 gms
[4]; Morphine 13 mg/kg, Nicotine 0
  Meas (von Frey response): 4.65 gms (2×) and 7.65 gms (3×)
[4]; Morphine 20 mg/kg, Nicotine 0
  Meas (von Frey response): 7.9 gms and 4.9 gms (3×) and 8.1 gms
Tolerance to morphine; morphine 2 mg/kg/hr subcutaneous pump, nicotine 1 mg/kg IP or saline, heat withdrawal latency, 18 hour period
  reduction in peak effect (plateau of analgesic action): 64±14%

## CN1CCCC1c1cccnc1 (stereo not drawn) [nicotine]
Postoperative pain; 20 non-smoking women after gynecological surgery, reduced from 8 (placebo)
  peak pain scores (VAS, out of 10): 5
Postoperative pain; after surgery, nicotine nasal spray 3 mg, PCA morphine
  time at which peak pain score occurred: 35 min
Postoperative pain; nicotine nasal spray 3 mg at end of surgery, PCA morphine available, first hour, mean (SD)
  peak pain score (numerical analog score 0-10): 5.3 (1.6) units
Postoperative pain; nicotine nasal spray 3 mg single dose, PCA morphine, mean (SD), P<0.01 vs placebo
  pain score twenty-four hours after emergence: 1.5 (0.5)
Postoperative pain; nicotine nasal spray just prior to emergence, P<0.001
  pain scores during the first hour compared with placebo: lower pain scores at all times during the first hour
Postoperative pain; preliminary data set, placebo 6.5
  average VAS score in the first hour: approximately 4.5
Postoperative pain; single 3 mg intranasal dose, last assessment in the study
  duration of analgesic effect: at least 24 hours
[5]; nicotine nasal spray 3 mg, difference vs placebo not statistically significant
  morphine used during the first 24 hours after surgery: 41 ± 9 mg
[5]; nicotine nasal spray 3 mg, mean (SD), P<0.05 vs control
  cumulative morphine utilization during the first hour: 6 (5) mg
[5]; nicotine nasal spray 3 mg, p<0.01
  overall morphine usage compared to the placebo group: about half
[5]; nicotine vs placebo
  reduction in morphine requirement in the first hour: 50%
[6]; first hour after surgery
  systolic blood pressure compared with placebo: lower systolic blood pressure
[6]; first postoperative hour
  diastolic blood pressure compared with placebo: no difference
  heart rate compared with placebo: no difference
[6]; first postoperative hour, mean (SD), placebo 122 (3), P<0.001
  systolic blood pressure: 105 (3)
[6]; pilot study
  hemodynamic consequences of a single dose of nicotine: No hemodynamic consequences have been identified
post-incisional pain; 2 hours prior to hind-paw surgery
  benefit from pre-operative administration (expected): no benefit
post-incisional pain; micro-osmotic pump vs bolus injection
  analgesic response with constant infusion (expected): more stable level of analgesic response
[7]
  incidence of nausea and vomiting compared with placebo: did not differ
[4]; Morphine 0, Nicotine 0.5 (mg)
  Meas (von Frey response): 0 gms (4×) and 0.25 gms
[4]; Morphine 0, Nicotine 1 (mg)
  Meas (von Frey response): 1.95 gms (2×) and 2.7 gms (3×)
[4]; Morphine 0, Nicotine 1.5 (mg)
  Meas (von Frey response): 2.7 gms (2×) and 4.9 gms (2×) and 4.65 gms
[4]; Morphine 0, Nicotine 2 (mg)
  Meas (von Frey response): 2.7 gms (3×) and 4.9 gms (2×)
[4]; Morphine 0, Nicotine 3 (mg), upper threshold 15
  Meas (von Frey response): 15 gms
[4]; Morphine 0, Nicotine 5 (mg), upper threshold 15
  Meas (von Frey response): 15 gms
[4]; single IP injection
  ED20 for primary hyperalgesia: 1.5 mg/kg
Tolerance to morphine; morphine infusion 2 mg/kg/hr, data not shown
  peak withdrawal latency compared with saline group: higher
Tolerance to morphine; nicotine 1.5 mg/kg, morphine continuous infusion 18 hours, P<0.001
  tolerance to morphine after pretreatment with a single dose of nicotine: Tolerance is reduced
TNF-α, IL2 and IL6
  levels of TNF-α, IL2 and IL6 compared with placebo group (expected): lower levels
[8]
  average increase in systolic blood pressure: 7 mM of mercury
  change in diastolic blood pressure: no change
  change in heart rate: no change
[9]; [10]
  arterial peak concentration: 100 µM
  steady state venous concentration: 30 µM
[9]; intranasal
  time to peak effect: five
  time until effect is dissipated: about one
